Reference: US4618669A, “S-(carbamoyl-phenylselenyl) derivatives of glutathione and of aminomercaptocarboxylic acids” (A. Nattermann & Cie GmbH, priority 1984, dated 1986)

assay: Glutathione-peroxidase-like activity, reaction rates by the method of A. Wendel; assay type: biochemical; details: relative to S-(2-phenylcarbamoyl-phenylselenyl) glutathione, taken as 100%; tert-butylhydroperoxide; in vitro
Experimental: The measuring of the glutathione peroxidase-like activity is carried out by the method of A. Wendel (A. Wendel, Methods in Enzymology, vol. 77, 325-333 (1981)). In this experiment, the reaction of the co-substrate nicotine […]-dinucleotide-phosphate is measured. The reducing agent in this case is not glutathione, but the […] containing aminoacid which has been used for the synthesis of the respective compounds. […] In in vitro-experiments, the catalysis of the peroxidase destruction has been examined. It was found, that the compounds of the present invention can replace the glutathioneperoxidase. [drawing 5] The reaction rates were measured by the method of A. Wendel (A. Wendel, Methods in Enzymology, vol. 77, pages 325-333 (1981)).

| SMILES | catalytic activity (%) |
| --- | --- |
| N[C@@H](CS[Se]c1ccccc1C(=O)NCc1ccccc1)C(=O)O [S-(2-Benzylcarbamoyl-phenylselenyl)-L-cysteine] | 56% |
| NC(CCC(=O)NC(CS[Se]c1cc(F)ccc1C(=O)Nc1ccccc1)C(=O)NCC(=O)O)C(=O)O [S-(2-Phenylcarbamoyl-5-fluoro-phenylselenyl)-L-glutathione] | 92% |
| N[C@@H](CS[Se]c1ccccc1C(=O)Nc1ccccc1)C(=O)O [S-(2-Phenylcarbamoyl-phenylselenyl)-L-cysteine] | 210% |
| N[C@@H](CCC(=O)N[C@@H](CS[Se]c1ccccc1C(=O)Nc1ccccc1)C(=O)NCC(=O)O)C(=O)O [S-(2-Phenylcarbamoyl-phenylselenyl)-L-glutathione] | 100% |
| CC(=O)N[C@@H](CS[Se]c1ccccc1C(=O)Nc1ccccc1)C(=O)O [S-(2-Phenylcarbamoyl-phenylselenyl)-N-acetyl-L-cysteine] | 40% |
| NC(CCC(=O)NC(CS[Se]c1cc(Cl)ccc1C(=O)Nc1ccccc1)C(=O)NCC(=O)O)C(=O)O [S-(2-phenylcarbamoyl-5-chlor-phenylselenyl)-L-glutathione] | 99% |
| COc1ccc(C(=O)Nc2ccccc2)c([Se]SCC(NC(=O)CCC(N)C(=O)O)C(=O)NCC(=O)O)c1 [S-(2-phenylcarbamoyl-5-methoxy-phenylselenyl)-L-glutathione] | 63% |
| COc1cccc(C(=O)Nc2ccccc2)c1[Se]SC[C@H](N)C(=O)O [S-(2-phenylcarbamoyl-6-methoxy-phenylselenyl)-L-cysteine] | 440% |
| COc1cccc(C(=O)Nc2ccccc2)c1[Se]SCC(NC(=O)CCC(N)C(=O)O)C(=O)NCC(=O)O [S-(2-phenylcarbamoyl-6-methoxy-phenylselenyl)-L-glutathione] | 225% |
| CC(C)(S[Se]c1ccccc1C(=O)Nc1ccccc1)[C@@H](N)C(=O)O [S-(2-phenylcarbamoyl-phenylselenyl)-D-penicillamine] | 25% |
| COc1ccccc1NC(=O)c1ccccc1[Se]SCC(NC(=O)CCC(N)C(=O)O)C(=O)NCC(=O)O [S--[2-(2-methoxyphenylcarbamoyl)-phenylselenyl]-L--glutathione] | 37% |
| CC(=O)N[C@@H](CS[Se]c1ccccc1C(=O)Nc1ccc(F)cc1)C(=O)O [S-[2-(4-fluorophenylcarbamoyl)-phenylselenyl]-N-acetyl-L-cysteine] | 61% |

Results, then the compound that gave them:

| catalytic activity (%) | SMILES |
| --- | --- |
| 39% | NC(CCC(=O)NC(CS[Se]c1ccccc1C(=O)Nc1ccccc1Cl)C(=O)NCC(=O)O)C(=O)O [S-[2-(2-chlorphenylcarbamoyl)-phenylselenyl]-L-glutathione] |
| 21% | N[C@@H](CCC(=O)N[C@@H](CS[Se]c1ccccc1C(=O)Nc1ccc(Cl)c(Cl)c1)C(=O)NCC(=O)O)C(=O)O [S-[2-(3,4-Dichlorophenylcarbamoyl)-phenylselenyl]-L-glutathione] |
| 113% | NC(CCC(=O)NC(CS[Se]c1ccccc1C(=O)Nc1cccc(F)c1)C(=O)NCC(=O)O)C(=O)O [S-[2-(3-fluorophenylcarbamoyl)-phenylselenyl]-L-glutathione] |
| 116% | NC(CCC(=O)NC(CS[Se]c1ccccc1C(=O)Nc1ccc(Cl)cc1)C(=O)NCC(=O)O)C(=O)O [S-[2-(4-Chlorophenylcarbamoyl)-phenylselenyl]-L-glutathione] |
| 124% | COc1ccc(NC(=O)c2ccccc2[Se]SCC(NC(=O)CCC(N)C(=O)O)C(=O)NCC(=O)O)cc1 [S-[2-(4-Methoxyphenylcarbamoyl)-phenylselenyl]-L-glutathione] |
| 121% | NC(CCC(=O)NC(CS[Se]c1ccccc1C(=O)Nc1ccc([N+](=O)[O-])cc1)C(=O)NCC(=O)O)C(=O)O [S-[2-(4-nitrophenylcarbamoyl)-phenylselenyl]-L-glutathione] |
| 49% | NC(CCC(=O)NC(CS[Se]c1ccccc1C(=O)Nc1ccc(C(F)(F)F)cc1)C(=O)NCC(=O)O)C(=O)O [S-[2-(4-trifluormethylphenylcarbamoyl)-phenylselenyl]-L-glutathione] |

assay: as above; assay type: biochemical; details: 1 millimolar concentration of glutathione with tert-butylhydroperoxide

| SMILES | reaction rate |
| --- | --- |
| N[C@@H](CCC(=O)N[C@@H](CS[Se]c1ccccc1C(=O)Nc1ccccc1)C(=O)NCC(=O)O)C(=O)O [S-(2-Phenylcarbamoyl-phenylselenyl)-L-glutathione] | 1,17×10^6 units per mol |
